These molecules were tested against T1, Human NMDA (NR1/NR2B) Receptor (Homo sapiens, UniProt Q13224) (assay: NR2B Ca2+ influx assay). Settings: 10 μM compound; HEK293 cells expressing GRIN1 and GRIN2B; glutamic acid/glycine-induced Ca2+ influx, Fluo-4 fluorescence; read-out: inhibitory rate (10 μM compound concentration).
T1 construct: host or cells: HEK293
Format: cell-based
From the text: Experimental Example 1 NR2B Ca^2+ Influx Assay
To confirm the “antagonistic action on an NMDA receptor containing the NR2B subunit” of the compound of the present invention, human embryonic kidney cell expressing the “NMDA receptor composed of four subunits including 2 sets of heterodimers of NR1 and NR2B”, specifically HEK293 cell expressing human glutamate ionotropic receptor NMDA type subunit 1 (GRIN1) and human glutamate ionotropic receptor NMDA type subunit 2B (GRIN2B), was used and the activation suppressive effect (inhibitory activity) on the receptors by the compound of the present invention was measured.
HEK293 cells that express GRIN1 and GRIN2B were purchased from ChanTest (Human NMDA (NR1/NR2B) Receptor-expressing, stable replicating cell line (HEK293) catalog No. CT6121).
As an index of the NMDA receptor activation, intracellular calcium ion (Ca^2+) influx caused by the binding of glycine and glutamic acid with NR1 and NR2B, respectively, was used.
HEK293 cells that express GRIN1 and GRIN2B were cultured in a cell culture flask in DMEM/F-12 (COSMO BIO, 10-092-CM) medium added with 10% FBS (fetal bovine serum, AusGene), 100 units/mL penicillin, 100 μg/mL streptomycin, 500 μg/mL neomycin, 100 μg/mL Zeocin (registered trade mark, Invitrogen), 5 μg/mL Blasticidin, in an incubator (37° C., 5% CO2).
The cells were detached from flask with trypsin the day before the assay, suspended in a seeding medium (DMEM (Invitrogen, 31053) added with 10% FBS, 100 units/mL penicillin, 100 μg/mL streptomycin) at 8×10^5 cells/mL, seeded by 25 μL/well in a 384-well plate (Falcon, 356663) at 20000 cells/well, and cultured overnight in an incubator. On the day of the assay, tetracycline (Wako Pure Chemical Industries, Ltd., 209-16561) was diluted with the seeding medium at 2 μg/mL, added at 25 μL/well to the plate seeded with the cells, and cultured for 2 hr in an incubator. Thereafter, the medium was removed, and the cells were washed with 50 μL/well assay buffer (137 mM NaCl, 4 mM KCl, 1.8 mM CaCl2, 10 mM HEPES (pH 7.2), 10 mM Glucose, 0.1% BSA). Then, a loading buffer (assay buffer added with 2.5 μM Fluo-4AM, 2 mM Amaranth, 1 mM Tartrazine) was added at 25 μL/well, and incubation was performed in the incubator for 30 min, and at room temperature for 15 min. A solution (25 μL/well) of the Example compound diluted with the above-mentioned assay buffer at 30 μM (final concentration 10 μM) was added, and the cells were stood for 15 min at room temperature. Using FDSS7000EX/μCELL (Hamamatsu Photonics K.K.), 25 μL/well of an assay buffer containing 30 μM glutamic acid, 30 μM glycine was added, and the fluorescence signal at wavelength of Excitation 480 nm, Emission 540 nm was measured every 3 seconds for 5 min. The inhibitory activity was calculated as a relative activity value (inhibitory rate) that inhibits 100% of the cumulative value of the fluorescence value of a well added with an assay buffer free of glutamic acid, glycine, relative to the cumulative value of the fluorescence value of each well.

T1 sequence (Q13224 27-1484, other chains not shown): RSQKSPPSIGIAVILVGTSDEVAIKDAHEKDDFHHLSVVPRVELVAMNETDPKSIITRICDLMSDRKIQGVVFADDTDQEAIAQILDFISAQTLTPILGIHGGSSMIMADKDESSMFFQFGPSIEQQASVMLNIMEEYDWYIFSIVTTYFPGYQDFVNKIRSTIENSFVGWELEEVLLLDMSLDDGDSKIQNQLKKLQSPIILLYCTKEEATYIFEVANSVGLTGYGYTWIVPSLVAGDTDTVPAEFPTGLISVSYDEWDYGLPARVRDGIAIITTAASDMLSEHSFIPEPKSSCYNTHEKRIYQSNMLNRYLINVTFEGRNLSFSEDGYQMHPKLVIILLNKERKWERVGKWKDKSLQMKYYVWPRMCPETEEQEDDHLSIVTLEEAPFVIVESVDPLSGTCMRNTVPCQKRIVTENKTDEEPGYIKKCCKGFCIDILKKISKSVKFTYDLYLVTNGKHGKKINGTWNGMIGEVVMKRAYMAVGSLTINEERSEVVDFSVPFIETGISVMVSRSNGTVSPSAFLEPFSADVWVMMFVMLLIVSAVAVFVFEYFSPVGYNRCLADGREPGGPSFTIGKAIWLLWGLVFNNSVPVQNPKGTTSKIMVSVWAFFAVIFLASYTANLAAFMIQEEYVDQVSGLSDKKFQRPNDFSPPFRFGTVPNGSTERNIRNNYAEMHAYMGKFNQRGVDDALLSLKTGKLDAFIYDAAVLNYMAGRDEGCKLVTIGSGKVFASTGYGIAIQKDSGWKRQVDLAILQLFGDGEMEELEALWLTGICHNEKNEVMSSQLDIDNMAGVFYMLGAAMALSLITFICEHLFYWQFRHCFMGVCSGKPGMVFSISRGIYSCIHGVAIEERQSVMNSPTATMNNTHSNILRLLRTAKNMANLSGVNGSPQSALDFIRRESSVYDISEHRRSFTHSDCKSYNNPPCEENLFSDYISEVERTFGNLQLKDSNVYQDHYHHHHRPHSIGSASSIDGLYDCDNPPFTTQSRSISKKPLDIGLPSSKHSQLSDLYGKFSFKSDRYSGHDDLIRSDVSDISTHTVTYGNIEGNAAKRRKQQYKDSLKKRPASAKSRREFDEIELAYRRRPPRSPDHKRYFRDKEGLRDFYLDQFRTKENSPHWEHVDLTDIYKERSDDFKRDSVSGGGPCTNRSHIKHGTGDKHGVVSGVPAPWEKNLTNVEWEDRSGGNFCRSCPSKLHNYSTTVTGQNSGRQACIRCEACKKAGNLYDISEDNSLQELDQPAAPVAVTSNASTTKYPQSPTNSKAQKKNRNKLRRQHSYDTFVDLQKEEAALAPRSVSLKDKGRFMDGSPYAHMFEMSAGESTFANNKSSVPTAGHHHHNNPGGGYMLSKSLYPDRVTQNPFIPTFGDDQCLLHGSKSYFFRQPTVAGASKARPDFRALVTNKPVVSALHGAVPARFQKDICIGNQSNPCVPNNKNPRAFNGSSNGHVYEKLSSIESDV

Structure (SMILES)	inhibition at 10 µM
O=C(NCc1cncnc1C1CC(F)(F)C1)c1cnc(OC(F)F)c(F)c1 [Example 36, N-{[4-(3,3-difluorocyclobutyl)-pyrimidin-5-yl]methyl}-6-(difluoromethoxy)-5-fluoropyridine-3-carboxamide]	92%
O=C(NCc1cncnc1C1CC1(F)F)c1cnc(OC(F)F)c(F)c1 (centres unmarked) [Example 37, N-{[4-(2,2-difluorocyclopropyl)-pyrimidin-5-yl]methyl}-6-(difluoromethoxy)-5-fluoropyridine-3-carboxamide]	84%
CCc1ccncc1CNC(=O)c1cnc(OC(F)F)c(F)c1 [Example 38, 6-(difluoromethoxy)-N-[(4-ethylpyridin-3-yl)methyl]-5-fluoropyridine-3-carboxamide]	94%
O=C(NCc1cncc(F)c1OC1CC1)c1cnc(OC(F)F)c(F)c1 [Example 39, N-{[4-(cyclopropyloxy)-5-fluoropyridin-3-yl]methyl}-6-(difluoromethoxy)-5-fluoropyridine-3-carboxamide]	97%
Cc1c(F)cncc1CNC(=O)c1cnc(OC(F)F)c(F)c1 [Example 40, 6-(difluoromethoxy)-5-fluoro-N-[(5-fluoro-4-methylpyridin-3-yl)methyl]pyridine-3-carboxamide]	96%
CCc1c(F)cncc1CNC(=O)c1cnc(OC(F)F)c(F)c1 [Example 41, 6-(difluoromethoxy)-N-[(4-ethyl-5-fluoropyridin-3-yl)methyl]-5-fluoropyridine-3-carboxamide]	94%
CC(F)(F)c1ccncc1CNC(=O)c1cnc(OC(F)F)c(F)c1 [Example 43, N-{[4-(1,1-difluoroethyl)pyridin-3-yl]methyl}-6-(difluoromethoxy)-5-fluoropyridine-3-carboxamide]	90%
COc1ncc(C(=O)NCc2cnccc2C)cc1F [Example 44, 5-fluoro-6-methoxy-N-[(4-methylpyridin-3-yl)methyl]pyridine-3-carboxamide]	79%
CCOc1ncc(C(=O)NCc2cnccc2C)cc1F [Example 45, 6-ethoxy-5-fluoro-N-[(4-methylpyridin-3-yl)methyl]pyridine-3-carboxamide]	91%
Cc1ccncc1CNC(=O)c1cnc(C2CC2)c(F)c1 [Example 46, 6-cyclopropyl-5-fluoro-N-[(4-methylpyridin-3-yl)methyl]pyridine-3-carboxamide]	95%
Cc1c(Cl)cncc1CNC(=O)c1cnc(OC(F)F)c(F)c1 [Example 47, N-[(5-chloro-4-methylpyridin-3-yl)methyl]-6-(difluoromethoxy)-5-fluoropyridine-3-carboxamide]	97%
Cc1ccncc1CNC(=O)c1ccc(OC(F)F)c(F)c1 [Example 48, 4-(difluoromethoxy)-3-fluoro-N-[(4-methylpyridin-3-yl)methyl]benzamide]	88%
Cc1ccncc1CNC(=O)c1ccc(OC(F)(F)F)c(F)c1 [Example 49, 3-fluoro-N-[(4-methylpyridin-3-yl)methyl]-4-(trifluoromethoxy)-benzamide]	94%
Cc1ccncc1CNC(=O)c1ccc(OC(F)F)cc1 [Example 50, 4-(difluoromethoxy)-N-[(4-methylpyridin-3-yl)methyl]benzamide]	90%
Cc1ccncc1CNC(=O)c1ccc(OC(F)F)nc1 [Example 51, 6-(difluoromethoxy)-N-[(4-methylpyridin-3-yl)methyl]pyridine-3-carboxamide]	87%

More lines, now with the values ahead:

inhibition at 10 µM	Structure (SMILES)
83%	Cc1ccncc1CNC(=O)c1cnc(C(F)(F)F)c(Cl)c1 [Example 52, 5-chloro-N-[(4-methylpyridin-3-yl)methyl]-6-(trifluoromethyl)pyridine-3-carboxamide]
91%	Cc1ccncc1CNC(=O)c1ccc(C(F)(F)F)c(F)c1 [Example 53, 3-fluoro-N-[(4-methylpyridin-3-yl)methyl]-4-(trifluoromethyl)-benzamide]
94%	Cc1ccncc1CNC(=O)c1ccc(C(F)(F)F)c(Cl)c1 [Example 54, 3-chloro-N-[(4-methylpyridin-3-yl)methyl]-4-(trifluoromethyl)-benzamide]
91%	Cc1ccncc1CNC(=O)c1cc(F)c(OC(F)F)c(F)c1 [Example 55, 4-(difluoromethoxy)-3,5-difluoro-N-[(4-methylpyridin-3-yl)methyl]benzamide]
93%	Cc1ccncc1CNC(=O)c1csc(C2CC2)c1 [Example 56, 5-cyclopropyl-N-[(4-methylpyridin-3-yl)methyl]thiophene-3-carboxamide]
78%	Cc1ccncc1CNC(=O)c1cc(F)c(C(F)F)c(F)c1 [Example 57, 4-(difluoromethyl)-3,5-difluoro-N-[(4-methylpyridin-3-yl)methyl]benzamide]
85%	Cc1ccncc1CNC(=O)c1ccc(C(F)F)c(F)c1 [Example 58, 4-(difluoromethyl)-3-fluoro-N-[(4-methylpyridin-3-yl)methyl]benzamide]
93%	Cc1ccncc1CNC(=O)c1ccc(C(F)F)c(Cl)c1 [Example 59, 3-chloro-4-(difluoromethyl)-N-[(4-methylpyridin-3-yl)methyl]benzamide]
88%	COc1ccc(C(=O)NCc2cnccc2C)cc1F [Example 60, 3-fluoro-4-methoxy-N-[(4-methylpyridin-3-yl)methyl]benzamide]
95%	CCOc1c(F)cncc1CNC(=O)c1cnc(OC(F)F)c(F)c1 [Example 61, 6-(difluoromethoxy)-N-[(4-ethoxy-5-fluoropyridin-3-yl)methyl]-5-fluoropyridine-3-carboxamide]
87%	COc1ncncc1CNC(=O)c1cc(F)c(OC)c(F)c1 [Example 62, 3,5-difluoro-4-methoxy-N-[(4-methoxypyrimidin-5-yl)methyl]benzamide]
85%	Cc1ccncc1CNC(=O)c1ccc(C(F)(F)F)s1 [Example 64, N-[(4-methylpyridin-3-yl)methyl]-5-(trifluoromethyl)thiophene-2-carboxamide]
93%	CCOc1ncc(C(=O)NCc2cnccc2C)cc1Cl [Example 65, 5-chloro-6-ethoxy-N-[(4-methylpyridin-3-yl)methyl]pyridine-3-carboxamide]
84%	COc1ncc(C(=O)NCc2cnccc2C)cc1Cl [Example 66, 5-chloro-6-methoxy-N-[(4-methylpyridin-3-yl)methyl]pyridine-3-carboxamide]
92%	COc1c(F)cc(C(=O)NCc2cncc(F)c2C)cc1F [Example 67, 3,5-difluoro-N-[(5-fluoro-4-methylpyridin-3-yl)methyl]-4-methoxybenzamide]
93%	Cc1c(F)cncc1CNC(=O)c1cc(F)c(OC(F)F)c(F)c1 [Example 68, 4-(difluoromethoxy)-3,5-difluoro-N-[(5-fluoro-4-methylpyridin-3-yl)methyl]benzamide]
94%	Cc1c(F)cncc1CNC(=O)c1ccc(OC(F)F)c(F)c1 [Example 69, 4-(difiuoromethoxy)-3-fluoro-N-[(5-fluoro-4-methylpyridin-3-yl)methyl]benzamide]
91%	O=C(NCc1cnccc1C(F)F)c1cnc(OC(F)F)c(F)c1 [Example 70, 6-(difluoromethoxy)-N-{[4-(difluoromethyl)pyridin-3-yl]methyl)-5-fluoropyridine-3-carboxamide]
91%	COc1c(F)cc(C(=O)NCc2cnccc2C)cc1F [Example 71, 3,5-difluoro-4-methoxy-N-[(4-methylpyridin-3-yl)methyl]benzamide]
87%	CCOc1c(F)cc(C(=O)NCc2cnccc2C)cc1F [Example 72, 4-ethoxy-3,5-difluoro-N-[(4-methylpyridin-3-yl)methyl]benzamide]
